Reference: publication PMC6070540, “SUMO-mediated regulation of NLRP3 modulates inflammasome activity” (Nature Communications, 2018)

How the values were obtained:
[1] = test system: NLRP3 and ASC; test: PLA NLRP3/ASC (inflammasome formation); assay type: cell-based, murine; settings: WT BMDMs; LPS 4 h followed by 10 µM nigericin 30 min or 5 mM ATP 20 min (ATP n = 1)
Protocol: (§1) For immunofluorescence staining, 1.5 × 10^5 cells were plated on 13 mm glass cover slips (VWR). Cells were either left untreated, or treated with LPS (500 ng/ml) for 4 h followed or not by 10 µM nigericin for 30 min or 5 mM ATP for 20 min, before being fixed in 4% paraformaldehyde for 10 min. Following 10 min permeabilization with PBS containing 0.5% Triton X-100, cells were incubated for 1 h in 5% BSA in PBS. Respective primary antibodies were then added as follows: mouse α-NLRP3 (AG-20B-0014, AdipoGen, 1:1000), rabbit α-SUMO-2/3 (4971, Cell Signalling, 1:1000), rabbit α-ASC (AG-25B-0006, AdipoGen, 1:200) and rabbit α-MAPL (ab84067, Abcam, 1:1000). Alexa Fluor 633-conjugated Phalloidin (Invitrogen, 1:500) was used to stain actin filaments. Secondary fluorescent conjugated antibodies were then added as follows: 1:1000 CF488A-donkey α-mouse and 1:1000 CF488-donkey α-rabbit. Nuclei were stained with DAPI (Invitrogen). Cells were visualised by confocal microscopy (objective× 40, Zeiss LSM710). PLA was performed according to the manufacturer’s protocol using the Duolink Detection Kit (Cambridge BioScience Ltd). […] The number of fluorescent spots in 50 cells were quantified using ImageJ and data analysed using two-way ANOVA multiple comparison test or two-tailed Student’s t-test using Prism 7, Graphpad.

[2] = test system: endogenous NLRP3 and SUMO-2/-3; test: Proximity ligation assay (PLA) NLRP3/SUMO-2/-3; assay type: cell-based, murine; settings: immortalised WT BMDMs; LPS 4 h followed by 10 µM nigericin 30 min or 5 mM ATP 20 min (ATP n = 1)
Protocol: as §1

[3] = test system: FLAG-tagged human NLRP3; test: Sumoylation of NLRP3 in HEK293T cells (denaturing immunoprecipitation, immunoblot); assay type: cell-based; settings: for sumoylation of mutant NLRP3: transfected HEK293T cells, compared to WT NLRP3
Protocol: (§2) For sumoylation and ubiquitination assays 2 × 10^6 HEK293T cells were plated in 10 cm dishes and transfected with a total of 7.5 μg of DNA the following day. A modified version of “Detection of Sumoylated Proteins by Immunoprecipitation Analysis”[61] was used. Briefly, 16 h post-transfection cells were lysed in SDS lysis buffer (1% SDS, 0.15 M Tris-HCl pH 6.8 and 30% Glycerol). Lysates were boiled for 5 min and diluted 10 × in PBS-T (PBS and 1% Triton-X 100) supplemented with PR-619 (50 μM) and complete protease inhibitors. Cell lysates were sonicated for 20 s then clarified at 4 °C at 13,000 rpm for 10 min. A 20 μl of α-HA beads (SIGMA) or α-FLAG M2 beads (SIGMA) was rotated with cleared protein lysates at 4 °C for 4 h. Furthermore, 4× washes in PBS-T, supplemented with PR-619 (20 μM) and complete protease inhibitors, were performed, and samples eluted by boiling in 60 μl 1× SDS loading dye. Samples were separated by SDS-PAGE using Bolt 8% Bis-Tris plus 1.0 mm 12 well precast protein gels (Life Technologies) in MOPS buffer. Where necessary, the modification smears were quantified using Image Lab Software (Bio-Rad) and normalised to total immunoprecipitated NLRP3 in biological triplicate.

[4] = test system: SUMO-2/-3 proteome; test: Global sumoylation (RanGAP1, total SUMO-2/-3 proteome); assay type: cell-based, human; settings: HEK293T cells, nigericin
Protocol: as §2

[5] = test system: NLRP3, SUMO-2/-3, MAPL; test: Immunofluorescence staining of NLRP3, SUMO-2/-3, MAPL; assay type: cell-based, murine; settings: BMDMs
Protocol: as §1

[6] = test system: NLRP3 and MAPL; test: PLA NLRP3/MAPL; assay type: cell-based, murine; settings: WT BMDMs; untreated, LPS 4 h, or LPS 4 h followed by 10 µM nigericin 30 min; biological triplicate
Protocol: as §1

[7] = test system: FLAG-NLRP3; test: Ubiquitylation of NLRP3 in HEK293T cells (immunoprecipitation, immunoblot); assay type: cell-based, human
Protocol: as §2

[8] = test system: caspase-1; test: Caspase-1 cleavage assay in 293T-ASC-caspase-1 cells; assay type: cell-based, human; settings: transfected 293T-ASC-caspase-1 cells; p20 immunoblot
Protocol: For caspase-1 cleavage assays 1 × 10^5 HEK293T-ASC-caspase-1 cells were plated in 24-well plates and transfected with a total of 600 ng of DNA the following day. Cells were lysed in 80 μl of DISC lysis buffer (20 mM Tris-HCL pH 7.5, 150 mM NaCl, 2 mM EDTA, 1% Triton X-100, 10% Glycerol) supplemented with 2% SDS. To shred genomic DNA cell lysates were passed through 0.8 ml columns (Pierce). Lysates were quantified using BCA protein assay kit (Pierce) and 6× SDS loading dye added. Samples were boiled for 5 min before separating by SDS-PAGE using NuPAGE Novex 4–12% Bis-Tris 1.0 mm 20 well precast midi protein gels (Life Technologies) in MES buffer. Caspase-1 p20 antibody (Bally-1, human, Adipogen) was used to detect total and cleaved caspase-1 in cell lysate.

Nc1ncnc2c1ncn2[C@@H]1O[C@H](COP(=O)(O)OP(=O)(O)OP(=O)(O)O)[C@@H](O)[C@H]1O [ATP]
NLRP3-ASC inflammasome complexes (PLA) [1]: specifically formed upon treatment with LPS and nigericin or ATP | NLRP3-SUMO-2/-3 PLA signals upon inflammasome activation [2]: significantly reduced proximity labelling of NLRP3 and SUMO-2/-3

CO[C@@H]1C[C@@H](C[C@H]2CC[C@H](C)[C@H]([C@@H](C)C(=O)O)O2)O[C@]2(O[C@](C)([C@H]3CC[C@@](C)([C@@H]4O[C@@H]([C@H]5O[C@@](O)(CO)[C@H](C)C[C@@H]5C)C[C@@H]4C)O3)C[C@H]2C)[C@@H]1C [nigericin]
NLRP3-ASC inflammasome complexes (PLA) [1]: specifically formed upon treatment with LPS and nigericin or ATP | sumoylated NLRP3 after stimulation ([3]; HEK293T cells expressing FLAG-NLRP3, nigericin time course, normalised to total immunoprecipitated NLRP3, three independent experiments): induced notable reduction of sumoylated NLRP3 | sumoylation of RanGAP1 ([4]; selectivity control): remained sumoylated | overall smearing pattern of total SUMO-2/-3 proteome ([4]; total cell lysates): no apparent change | general expression of NLRP3 and SUMO-2/-3 ([5]; LPS and nigericin, immunofluorescence): unaffected | MAPL staining ([5]; nigericin, conventional immunofluorescence): caused a decrease in MAPL staining | NLRP3-SUMO-2/-3 PLA signals upon inflammasome activation [2]: significantly reduced proximity labelling of NLRP3 and SUMO-2/-3 | MAPL/NLRP3 proximity signals [6]: almost completely abolished MAPL/NLRP3 proximity signals | ubiquitylated NLRP3 after stimulation ([7]; HEK293T cells expressing FLAG-NLRP3, nigericin time course, three independent experiments): less ubiquitylated

NLRP3^E690K: reported CAPS disease mutant
sumoylation of mutant NLRP3 [3]: did not reduce the overall sumoylation smearing pattern

N#CSc1cc(SC#N)c(N)nc1N [PR-619]
appearance of sumoylated NLRP3 ([3]; HEK293T cells transfected with FLAG-tagged human NLRP3, endogenous SUMO-2/-3, immunoblot, in the presence vs absence of compound): significantly enhanced the appearance of sumoylated NLPR3

NLRP3^E692K: reported CAPS disease mutant
sumoylation of mutant NLRP3 [3]: did not reduce the overall sumoylation smearing pattern

NLRP3^K689R: full length NLRP3 with K689 mutated to R
sumoylation of mutant NLRP3 [3]: no effect | ability of NLRP3 to activate caspase-1 [8]: hyperactive in driving caspase-1 cleavage | ubiquitylation of mutant NLRP3 ([7]; transfected HEK293T cells, compared to WT NLRP3): no effect

B1: WT MAPL: mitochondrial-anchored protein ligase, SUMO E3 ligase (protein)
chain: MESGGRPSLCQFILLGTTSVVTAALYSVYRQKARVSQELKGAKKVHLGEDLKSILSEAPGKCVPYAVIEGAVRSVKETLNSQFVENCKGVIQRLTLQEHKMVWNRTTHLWNDCSKIIHQRTNTVPFDLVPHEDGVDVAVRVLKPLDSVDLGLETVYEKFHPSIQSFTDVIGHYISGERPKGIQETEEMLKVGATLTGVGELVLDNNSVRLQPPKQGMQYYLSSQDFDSLLQRQESSVRLWKVLALVFGFATCATLFFILRKQYLQRQERLRLKQMQEEFQEHEAQLLSRAKPEDRESLKSACVVCLSSFKSCVFLECGHVCSCTECYRALPEPKKCPICRQAITRVIPLYNS
modifications: left off: 2xHA, end not stated, kept | 2xSTREP, end not stated, state not stated
sumoylation of NLRP3 by co-expressed MAPL ([3]; FLAG-NLRP3 purified under denaturing conditions, HEK293T, three independent experiments): sumoylated NLRP3
